Source: ChEMBL document CHEMBL1144507, “Synthesis and antifungal activity of (Z)-5-arylidenerhodanines” (2007)
Values after ≈ are worked out from the molar mass of the structure shown.

How the values were obtained:
Trichophyton rubrum [1] = experiment: Antifungal activity against Trichophyton rubrum C136 after 48 hrs; format: functional
Trichophyton rubrum [2] = experiment: Antifungal activity against Trichophyton rubrum C137 after 48 hrs; format: functional
Trichophyton rubrum [3] = experiment: Antifungal activity against Trichophyton rubrum C135 after 48 hrs; format: functional
Trichophyton benhamiae [4] = experiment: Antifungal activity against Trichophyton mentagrophytes C738 after 48 hrs; format: functional, Arthroderma benhamiae
Trichophyton rubrum [5] = experiment: Antifungal activity against Trichophyton rubrum C139 after 48 hrs; format: functional
Trichophyton rubrum [6] = experiment: Antifungal activity against Trichophyton rubrum C110 after 48 hrs; format: functional
Trichophyton benhamiae [7] = experiment: Antifungal activity against Trichophyton mentagrophytes C943 after 48 hrs; format: functional, Arthroderma benhamiae
Trichophyton benhamiae [8] = experiment: Antifungal activity against Trichophyton mentagrophytes C539 after 48 hrs; format: functional, Arthroderma benhamiae
Trichophyton benhamiae [9] = experiment: Antifungal activity against Trichophyton mentagrophytes C364 after 48 hrs; format: functional, Arthroderma benhamiae
Trichophyton rubrum [10] = experiment: Antifungal activity against Trichophyton rubrum C140 after 48 hrs; format: functional
Trichophyton benhamiae [11] = experiment: Antifungal activity against Trichophyton mentagrophytes C108 after 48 hrs; format: functional, Arthroderma benhamiae

- MIC (Trichophyton rubrum [1]): 6 ng/mL (≈ 0.0206 µM)
- MIC (Trichophyton rubrum [2]): 6 ng/mL (≈ 0.0206 µM)
- MIC (Trichophyton rubrum [3]): 6 ng/mL (≈ 0.0206 µM)
- MIC (Trichophyton benhamiae [4]): 6 ng/mL (≈ 0.0206 µM)
- MIC (Trichophyton rubrum [5]): 12 ng/mL (≈ 0.0412 µM)
- MIC (Trichophyton rubrum [6]): 6 ng/mL (≈ 0.0206 µM)
- MIC (Trichophyton benhamiae [7]): 6 ng/mL (≈ 0.0206 µM)
- MIC (Trichophyton benhamiae [8]): 6 ng/mL (≈ 0.0206 µM)
- MIC (Trichophyton benhamiae [9]): 6 ng/mL (≈ 0.0206 µM)
- MIC (Trichophyton rubrum [10]): 3 ng/mL (≈ 0.0103 µM)
- MIC (Trichophyton benhamiae [11]): 6 ng/mL (≈ 0.0206 µM)
Compound: CN(C/C=C/C#CC(C)(C)C)Cc1cccc2ccccc12 [TERBINAFINE]
